# Assay results taken from PubChem BioAssay AID328 (DTP/NCI, 2004).
# Inconclusive results and toxic doses are left out.
# System: BDF1 mice, P388 leukemia ip, median survival T/C
# Assay: NCI In Vivo Anticancer Drug Screen. Data for tumor model P388 Leukemia (intraperitoneal) in B6D2F1 (BDF1) mice
# Settings: endpoint: median survival time, higher = longer survival
# Procedure, shortened: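 Compound-treated tumour-bearing mice were compared with vehicle-treated controls. Survival was recorded, and the value is the treated-group measurement divided by the control-group measurement (T/C).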
# [1] = dose: 100.0 mg/kg/injection, schedule: Q04DX003 (ip), vehicle: saline sonified
# [2] = dose: 200.0 mg/kg/injection, schedule: Q04DX003 (ip), vehicle: saline sonified
# [3] = dose: 100.0 mg/kg/injection, schedule: Q01DX009 (ip), vehicle: Klucel (hydroxypropylcellulose) (HPC)
# [4] = dose: 300.0 mg/kg/injection, schedule: Q01DX009 (ip), vehicle: Klucel (hydroxypropylcellulose) (HPC)
# [5] = dose: 100.0 mg/kg/injection, schedule: Q04DX003 (ip), vehicle: Klucel (hydroxypropylcellulose) (HPC)
# [6] = dose: 200.0 mg/kg/injection, schedule: Q04DX003 (ip), vehicle: Klucel (hydroxypropylcellulose) (HPC)
# [7] = dose: 400.0 mg/kg/injection, schedule: Q04DX003 (ip), vehicle: Klucel (hydroxypropylcellulose) (HPC)
compound,measurement,setting,value
COc1ccc(C2=CC(=O)C(c3ccc(OC)cc3)=CC2=O)cc1,T/C,"dose: 5.0 mg/kg/injection, schedule: Q01DX009 (ip), vehicle: gum acacia",87 % of control
same,T/C,"dose: 20.0 mg/kg/injection, schedule: Q01DX009 (ip), vehicle: gum acacia",91 % of control
same,T/C,"dose: 20.0 mg/kg/injection, schedule: Q04DX003 (ip), vehicle: gum acacia",100 % of control
same,T/C,"dose: 40.0 mg/kg/injection, schedule: Q01DX009 (ip), vehicle: gum acacia",95 % of control
same,T/C,"dose: 40.0 mg/kg/injection, schedule: Q04DX003 (ip), vehicle: gum acacia",90 % of control
same,T/C,"dose: 80.0 mg/kg/injection, schedule: Q01DX009 (ip), vehicle: gum acacia",91 % of control
same,T/C,"dose: 80.0 mg/kg/injection, schedule: Q04DX003 (ip), vehicle: gum acacia",95 % of control
CCCCCCCCCCCCCC(=O)O[C@@H]1[C@@H](C)[C@@]2(O)[C@@H](C=C(CO)C[C@]3(OC)C(=O)C(C)=C[C@@H]23)[C@@H]2C(C)(C)[C@]12OC(C)=O,T/C,"dose: 0.03 mg/kg/injection, schedule: Q01DX009 (ip), vehicle: saline + alcohol",91 % of control
same,T/C,"dose: 0.06 mg/kg/injection, schedule: Q01DX009 (ip), vehicle: Klucel (hydroxypropylcellulose) (HPC)",91 % of control
same,T/C,"dose: 0.06 mg/kg/injection, schedule: Q01DX009 (ip), vehicle: saline + alcohol",94 % of control
same,T/C,"dose: 0.12 mg/kg/injection, schedule: Q01DX009 (ip), vehicle: Klucel (hydroxypropylcellulose) (HPC)",94 % of control
same,T/C,"dose: 0.12 mg/kg/injection, schedule: Q01DX009 (ip), vehicle: saline + alcohol",117 % of control
same,T/C,"dose: 0.25 mg/kg/injection, schedule: Q01DX009 (ip), vehicle: Klucel (hydroxypropylcellulose) (HPC)",94 % of control
same,T/C,"dose: 0.25 mg/kg/injection, schedule: Q01DX009 (ip), vehicle: saline + alcohol",94 % of control
same,T/C,"dose: 0.5 mg/kg/injection, schedule: Q01DX009 (ip), vehicle: Klucel (hydroxypropylcellulose) (HPC)",110 % of control
same,T/C,"dose: 0.5 mg/kg/injection, schedule: Q01DX009 (ip), vehicle: saline + alcohol",107 % of control
same,T/C,"dose: 1.0 mg/kg/injection, schedule: Q01DX009 (ip), vehicle: Klucel (hydroxypropylcellulose) (HPC)",94 % of control
same,T/C,"dose: 1.0 mg/kg/injection, schedule: Q01DX009 (ip), vehicle: saline + alcohol",100 % of control
same,T/C,"dose: 3.1 micrograms/kg/injection, schedule: Q01DX009 (ip), vehicle: gum acacia",106 % of control
same,T/C,"dose: 3.1 micrograms/kg/injection, schedule: Q01DX009 (ip), vehicle: saline + alcohol",94 % of control
same,T/C,"dose: 3.1 micrograms/kg/injection, schedule: Q01DX009 (ip), vehicle: saline with Tween-80",87 % of control
same,T/C,"dose: 6.2 micrograms/kg/injection, schedule: Q01DX009 (ip), vehicle: gum acacia",97 % of control
same,T/C,"dose: 6.2 micrograms/kg/injection, schedule: Q01DX009 (ip), vehicle: saline + alcohol",87 % of control
same,T/C,"dose: 6.2 micrograms/kg/injection, schedule: Q01DX009 (ip), vehicle: saline with Tween-80",97 % of control
same,T/C,"dose: 12.5 micrograms/kg/injection, schedule: Q01DX009 (ip), vehicle: gum acacia",87 % of control
same,T/C,"dose: 12.5 micrograms/kg/injection, schedule: Q01DX009 (ip), vehicle: saline + alcohol",94 % of control
same,T/C,"dose: 12.5 micrograms/kg/injection, schedule: Q01DX009 (ip), vehicle: saline with Tween-80",160 % of control
same,T/C,"dose: 25.0 micrograms/kg/injection, schedule: Q01DX009 (ip), vehicle: saline + alcohol",103 % of control
same,T/C,"dose: 25.0 micrograms/kg/injection, schedule: Q01DX009 (ip), vehicle: saline with Tween-80",103 % of control
same,T/C,"dose: 50.0 micrograms/kg/injection, schedule: Q01DX009 (ip), vehicle: gum acacia",122 % of control
same,T/C,"dose: 50.0 micrograms/kg/injection, schedule: Q01DX009 (ip), vehicle: saline + alcohol",101 % of control
same,T/C,"dose: 50.0 micrograms/kg/injection, schedule: Q01DX009 (ip), vehicle: saline with Tween-80",87 % of control
same,T/C,"dose: 100.0 micrograms/kg/injection, schedule: Q01DX009 (ip), vehicle: gum acacia",106 % of control
same,T/C,"dose: 100.0 micrograms/kg/injection, schedule: Q01DX009 (ip), vehicle: saline + alcohol",97 % of control
same,T/C,"dose: 100.0 micrograms/kg/injection, schedule: Q01DX009 (ip), vehicle: saline with Tween-80",122 % of control
same,T/C,"dose: 200.0 micrograms/kg/injection, schedule: Q01DX009 (ip), vehicle: gum acacia",113 % of control
same,T/C,"dose: 200.0 micrograms/kg/injection, schedule: Q01DX009 (ip), vehicle: saline + alcohol",97 % of control
same,T/C,"dose: 200.0 micrograms/kg/injection, schedule: Q01DX009 (ip), vehicle: saline with Tween-80",106 % of control
same,T/C,"dose: 400.0 micrograms/kg/injection, schedule: Q01DX009 (ip), vehicle: gum acacia",160 % of control
same,T/C,"dose: 400.0 micrograms/kg/injection, schedule: Q01DX009 (ip), vehicle: saline + alcohol",94 % of control
same,T/C,"dose: 400.0 micrograms/kg/injection, schedule: Q01DX009 (ip), vehicle: saline with Tween-80",94 % of control
same,T/C,"dose: 800.0 micrograms/kg/injection, schedule: Q01DX009 (ip), vehicle: gum acacia",94 % of control
same,T/C,"dose: 800.0 micrograms/kg/injection, schedule: Q01DX009 (ip), vehicle: saline + alcohol",106 % of control
same,T/C,"dose: 800.0 micrograms/kg/injection, schedule: Q01DX009 (ip), vehicle: saline with Tween-80",169 % of control
CCCCCCCCCCCCCCCOc1ccc(C)cc1,T/C,"dose: 50.0 mg/kg/injection, schedule: Q04DX003 (ip), vehicle: saline sonified",90 % of control
same,T/C,[1],100 % of control
same,T/C,[2],90 % of control
CN(C)c1nc(NC(=O)NC(=O)c2c(F)cccc2F)nc(N(C)C)n1,T/C,"dose: 25.0 mg/kg/injection, schedule: Q01DX009 (ip), vehicle: saline with Tween-80",88 % of control
COc1ccc(P(=S)(S)c2ccc(OC)cc2)cc1,T/C,[3],100 % of control
same,T/C,[4],95 % of control
O=[N+]([O-])c1cccc(Oc2ncccc2[N+](=O)[O-])c1,T/C,"dose: 65.0 mg/kg/injection, schedule: Q04DX003 (ip), vehicle: Klucel (hydroxypropylcellulose) (HPC)",118 % of control
same,T/C,[5],109 % of control
same,T/C,"dose: 150.0 mg/kg/injection, schedule: Q04DX003 (ip), vehicle: Klucel (hydroxypropylcellulose) (HPC)",109 % of control
same,T/C,[6],105 % of control
same,T/C,[7],115 % of control
CC(C)(C)NC(=O)NCc1cccnc1,T/C,"dose: 100.0 mg/kg/injection, schedule: Q04DX003 (ip), vehicle: saline with Tween-80",91 % of control
same,T/C,"dose: 200.0 mg/kg/injection, schedule: Q04DX003 (ip), vehicle: saline with Tween-80",95 % of control
same,T/C,"dose: 400.0 mg/kg/injection, schedule: Q04DX003 (ip), vehicle: saline with Tween-80",100 % of control
O=C1C(c2ccccc2)=S=C2C=CC=CN12,T/C,"dose: 12.5 mg/kg/injection, schedule: Q01DX001 (ip), vehicle: saline with Tween-80",109 % of control
same,T/C,"dose: 25.0 mg/kg/injection, schedule: Q01DX001 (ip), vehicle: saline with Tween-80",100 % of control
same,T/C,"dose: 50.0 mg/kg/injection, schedule: Q01DX001 (ip), vehicle: saline with Tween-80",87 % of control
same,T/C,"dose: 100.0 mg/kg/injection, schedule: Q01DX001 (ip), vehicle: saline with Tween-80",100 % of control
Cc1ccc(OCC(O)CN2CCN(c3ccc(Cl)cc3)CC2)cc1 (configuration not stated),T/C,[1],100 % of control
same,T/C,[2],100 % of control
same,T/C,"dose: 400.0 mg/kg/injection, schedule: Q04DX003 (ip), vehicle: saline sonified",100 % of control
CCSC(C(O)C(O)C(O)C(O)CO)n1ccc(=O)[nH]c1=O (configuration not stated),T/C,"dose: 12.5 mg/kg/injection, schedule: Q01DX001 (ip), vehicle: saline",100 % of control
same,T/C,"dose: 25.0 mg/kg/injection, schedule: Q01DX001 (ip), vehicle: saline",100 % of control
same,T/C,"dose: 50.0 mg/kg/injection, schedule: Q01DX001 (ip), vehicle: saline",100 % of control
C=Cc1ccc(Oc2ccccc2)cc1,T/C,"dose: 25.0 mg/kg/injection, schedule: Q01DX009 (ip), vehicle: saline",104 % of control
same,T/C,"dose: 50.0 mg/kg/injection, schedule: Q01DX009 (ip), vehicle: saline",104 % of control
same,T/C,"dose: 100.0 mg/kg/injection, schedule: Q01DX009 (ip), vehicle: saline",109 % of control
Cc1cc(C)cc(C(O)(c2cc(C)cc(C)c2)c2cc(C)cc(C)c2)c1,T/C,[5],100 % of control
same,T/C,[6],90 % of control
same,T/C,[7],110 % of control
c1ccc(CSSCc2ccccc2)cc1,T/C,"dose: 75.0 mg/kg/injection, schedule: Q01DX009 (ip), vehicle: Klucel (hydroxypropylcellulose) (HPC)",104 % of control
same,T/C,[3],90 % of control
same,T/C,[5],100 % of control
same,T/C,"dose: 150.0 mg/kg/injection, schedule: Q01DX009 (ip), vehicle: Klucel (hydroxypropylcellulose) (HPC)",100 % of control
same,T/C,"dose: 200.0 mg/kg/injection, schedule: Q01DX009 (ip), vehicle: Klucel (hydroxypropylcellulose) (HPC)",86 % of control
same,T/C,[6],95 % of control
same,T/C,[4],90 % of control
same,T/C,[7],95 % of control
